Source: US10172868B2, “Substituted quinazolines for inhibiting kinase activity” (NeuPharma, Inc., priority 2013, dated 2019)

What was measured:
H1975 cells = test: Inhibition of cancer cell growth, MTT assay, H1975; details: Homo sapiens, NCI-H1975, 72 h, read-out: IC50 in H1975 cells
Procedure: Inhibition of cell growth by compounds was measured using MTT assay (Mosmann, T., Journal of Immunological Methods, 1983, 65, 55-63). Tumor cell lines were purchased from ATCC (American Type Culture Collection, Manassas, Va.). All cell lines were maintained in RPMI 1640 (Hyclone) supplemented with 10% fetal bovine serum (FBS, Hyclone), glutamine (2 mM, Hyclone), and antibiotics (penicillin 100 U/mL and streptomycin 50 μg/mL) at 37° C. in a humidified atmosphere of 5% CO2 in air. Taxol (as a positive control. Sigma) and compounds were dissolved in DMSO (Sigma), and the final concentration of DMSO in the medium was 1%. Tumor cells were plated in 96-well plates at densities of about 4000 cells/well of a 96-well plate and allowed to adhere/grow for 24 h. They were then treated with various concentrations of drug for 72 h, 3-(4,5-Dimethylthiazol-2-yl)-2,5-diphenyltetrazolium bromide (MTT, Sigma) was used to determine the number of viable cells at the time of compound addition and the number of cells remaining after 72 h compound exposure. The number of cells remaining after 72 h was compared to the number of viable cells at the time of compound addition by measuring the absorbance at 570 nm, allowing for the calculation of growth inhibition.
All concentrations of compounds were tested in triplicate and controls were averaged over 4 wells. IC50 was calculated by plotting the concentration of compound vs the percentage of inhibition in treated wells using GraphPad Prism 5.

EGFR (ErbB1) = EGFR (ErbB1) (Homo sapiens (Human), UniProt P00533); test: Z'-LYTE kinase inhibition assay, EGFR; assay type: biochemical; details: read-out: % inhibition against EGFR (Compound at 0.041 μM)
Procedure: Inhibitory activities of compounds against BTK, EGFR and EGFR mutants (EGFR L858R, EGFR T790M, EGFR L858R/T790M), FGFR1, FGFR2, JAK2, JAK3 and KDR were measured by Invitrogen using Z'-LYTE® Method as briefly described in the following. Test Compounds are screened in 1% DMSO (final) in the well. For 10 point titrations, 3-fold serial dilutions are conducted from the starting concentration. All ATP Solutions are diluted to a 4× working concentration in Kinase Buffer (50 mM HEPES pH 7.5, 0.01% BRIJ-35, 10 mM MgCl2, 1 mM EGTA). Peptide/Kinase Mixtures are diluted to a 2× working concentration in the appropriate Kinase Buffers as described below. (i) Peptide/Kinase Mixtures for Measurement of EGFR (ErbB1): The 2×EGFR (ErbB1)/[…] mixture is prepared in 50 mM HEPES pH 7.5, 0.01% BRIJ-35, 10 mM MgCl2. 4 mM MnCl2, 1 mM EGTA, 2 mM DTT. The final 10 μL Kinase Reaction consists of 1.1-5.25 ng EGFR (ErbB1) and 2 μM […] in 50 mM HEPES pH 7.5, 0.01% BRIJ-35, 10 mM MgCl2, 2 mM MnCl2. 1 mM EGTA, 1 mM DTT. After the 1 hour Kinase Reaction incubation, 5 μL of a 1:64 dilution of Development Reagent B is added. Reaction starts by 30-second shaking of mixture consisting of 2.5 μL 4× test compound, […] 2× kinase reaction mixture and 2.5 μL 4×ATP Solution on Bar-coded Corning, low volume NBS, black 384-well plate (Corning Cat. #3676). Then the mixture is incubated for 60-minute at room temperature for the kinase reaction, followed by addition of 5 μL of a 1:1024 dilution of development reagent A and 30-second plate shake. The mixture is then incubated for another 60-minute at room temperature for development reaction. Finally fluorescence is read by plate reader. To determine IC50 of a compound against EGFR, EGFR mutant and other kinases, a series of concentrations of the compound were tested for the inhibition.

EGFR (ErbB1) T790M L858R = EGFR (ErbB1) T790M L858R (Homo sapiens (Human), UniProt P00533, L858R/T790M); test: Z'-LYTE kinase inhibition assay, EGFR L858R/T790M; assay type: biochemical; details: for inhibition at 0.0137 µM: read-out: % inhibition against EGFR L858R/T790M (Compound at 0.0137 μM)
EGFR (ErbB1) T790M L858R, sequence (P00533 25-1210 T790M/L858R): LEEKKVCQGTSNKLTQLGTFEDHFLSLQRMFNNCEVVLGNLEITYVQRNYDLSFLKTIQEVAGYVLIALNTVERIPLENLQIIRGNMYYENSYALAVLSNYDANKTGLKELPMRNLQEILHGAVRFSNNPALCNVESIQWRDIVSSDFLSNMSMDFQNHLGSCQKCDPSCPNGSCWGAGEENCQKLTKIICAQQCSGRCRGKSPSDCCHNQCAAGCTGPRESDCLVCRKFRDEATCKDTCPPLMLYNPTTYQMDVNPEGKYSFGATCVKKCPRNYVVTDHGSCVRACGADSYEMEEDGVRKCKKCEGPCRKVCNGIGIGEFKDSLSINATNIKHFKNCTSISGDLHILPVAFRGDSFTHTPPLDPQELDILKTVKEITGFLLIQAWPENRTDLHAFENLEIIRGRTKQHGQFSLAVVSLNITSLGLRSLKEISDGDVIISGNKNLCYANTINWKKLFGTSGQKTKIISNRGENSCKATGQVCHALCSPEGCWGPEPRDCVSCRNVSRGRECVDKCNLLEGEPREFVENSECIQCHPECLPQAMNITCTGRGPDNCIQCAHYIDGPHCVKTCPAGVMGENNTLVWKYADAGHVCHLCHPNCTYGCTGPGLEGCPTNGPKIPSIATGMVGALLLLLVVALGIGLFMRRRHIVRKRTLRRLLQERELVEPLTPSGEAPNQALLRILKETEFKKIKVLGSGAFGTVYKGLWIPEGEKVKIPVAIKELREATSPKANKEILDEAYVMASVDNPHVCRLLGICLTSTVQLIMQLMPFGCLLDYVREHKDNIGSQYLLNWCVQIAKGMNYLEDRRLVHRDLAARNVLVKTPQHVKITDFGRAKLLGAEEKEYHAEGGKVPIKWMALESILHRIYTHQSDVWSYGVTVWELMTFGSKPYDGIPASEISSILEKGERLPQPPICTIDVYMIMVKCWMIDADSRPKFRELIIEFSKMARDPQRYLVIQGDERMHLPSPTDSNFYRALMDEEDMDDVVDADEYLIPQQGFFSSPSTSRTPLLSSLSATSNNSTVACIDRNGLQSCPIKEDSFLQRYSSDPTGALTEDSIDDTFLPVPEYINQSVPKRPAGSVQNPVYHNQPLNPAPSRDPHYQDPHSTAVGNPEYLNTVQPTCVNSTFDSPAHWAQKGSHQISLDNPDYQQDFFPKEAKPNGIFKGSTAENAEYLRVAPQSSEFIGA
Procedure: Inhibitory activities of compounds against BTK, EGFR and EGFR mutants (EGFR L858R, EGFR T790M, EGFR L858R/T790M), FGFR1, FGFR2, JAK2, JAK3 and KDR were measured by Invitrogen using Z'-LYTE® Method as briefly described in the following. Test Compounds are screened in 1% DMSO (final) in the well. For 10 point titrations, 3-fold serial dilutions are conducted from the starting concentration. All ATP Solutions are diluted to a 4× working concentration in Kinase Buffer (50 mM HEPES pH 7.5, 0.01% BRIJ-35, 10 mM MgCl2, 1 mM EGTA). Peptide/Kinase Mixtures are diluted to a 2× working concentration in the appropriate Kinase Buffers as described below. (iv) Peptide/Kinase Mixtures for Measurement of EGFR (ErbB1) T790M L858R: The 2×EGFR (ErbB1) […] mixture is prepared in 50 mM HEPES pH 6.5, 0.01% BRIJ-35, 10 mM MgCl2, 1 mM EGTA, 0.02% NaN3. […] After the 1 hour Kinase Reaction incubation, 5 μL of a 1:64 dilution of Development Reagent B is added. Reaction starts by 30-second shaking of mixture consisting of 2.5 μL 4× test compound, […] 2× kinase reaction mixture and 2.5 μL 4×ATP Solution on Bar-coded Corning, low volume NBS, black 384-well plate (Corning Cat. #3676). Then the mixture is incubated for 60-minute at room temperature for the kinase reaction, followed by addition of 5 μL of a 1:1024 dilution of development reagent A and 30-second plate shake. The mixture is then incubated for another 60-minute at room temperature for development reaction. Finally fluorescence is read by plate reader. To determine IC50 of a compound against EGFR, EGFR mutant and other kinases, a series of concentrations of the compound were tested for the inhibition.

EGFR (ErbB1), sequence (P00533 25-1210): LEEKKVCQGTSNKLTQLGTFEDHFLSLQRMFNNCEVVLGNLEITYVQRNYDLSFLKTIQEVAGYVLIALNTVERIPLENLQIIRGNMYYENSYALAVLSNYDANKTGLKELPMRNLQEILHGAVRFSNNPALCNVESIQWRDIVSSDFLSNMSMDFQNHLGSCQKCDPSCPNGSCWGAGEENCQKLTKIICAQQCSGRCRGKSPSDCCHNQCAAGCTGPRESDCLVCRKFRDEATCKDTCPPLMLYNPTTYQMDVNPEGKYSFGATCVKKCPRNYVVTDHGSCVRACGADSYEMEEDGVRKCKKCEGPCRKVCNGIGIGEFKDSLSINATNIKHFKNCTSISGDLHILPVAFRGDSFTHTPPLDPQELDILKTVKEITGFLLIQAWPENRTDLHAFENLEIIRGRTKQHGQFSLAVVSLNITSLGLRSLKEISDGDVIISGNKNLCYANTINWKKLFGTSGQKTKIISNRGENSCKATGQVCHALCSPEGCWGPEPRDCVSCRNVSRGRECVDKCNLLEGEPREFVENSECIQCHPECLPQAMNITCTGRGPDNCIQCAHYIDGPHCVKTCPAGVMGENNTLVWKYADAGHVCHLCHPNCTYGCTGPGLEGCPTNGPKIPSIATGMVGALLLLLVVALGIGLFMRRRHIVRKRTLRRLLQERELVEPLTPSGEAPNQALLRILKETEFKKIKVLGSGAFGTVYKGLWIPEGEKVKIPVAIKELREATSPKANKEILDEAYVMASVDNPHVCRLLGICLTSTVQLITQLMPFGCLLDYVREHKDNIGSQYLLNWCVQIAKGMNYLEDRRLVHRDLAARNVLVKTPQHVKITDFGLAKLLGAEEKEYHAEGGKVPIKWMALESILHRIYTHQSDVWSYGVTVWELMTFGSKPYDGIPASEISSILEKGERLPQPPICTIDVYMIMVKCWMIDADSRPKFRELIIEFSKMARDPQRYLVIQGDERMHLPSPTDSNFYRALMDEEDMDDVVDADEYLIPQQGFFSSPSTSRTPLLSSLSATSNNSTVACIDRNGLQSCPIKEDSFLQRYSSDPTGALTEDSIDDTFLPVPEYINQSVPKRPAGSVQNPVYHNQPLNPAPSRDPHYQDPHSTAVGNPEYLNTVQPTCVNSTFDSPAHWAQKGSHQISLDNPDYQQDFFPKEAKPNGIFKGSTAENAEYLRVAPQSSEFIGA

Structure (SMILES)	IC50 (H1975 cells) [nM]	inhibition at 0.041 µM (EGFR (ErbB1)) [%]	inhibition at 0.0137 µM (EGFR (ErbB1) T790M L858R) [%]	IC50 (EGFR (ErbB1) T790M L858R; read-out: IC50 against EGFR L858R/T790M) [nM]
C=CC(=O)Nc1cccc(-c2cccc3cnc(Nc4ccc(-n5ccnc5)cc4)nc23)c1 [Example C094, N-(3-(2-((4-(1H-imidazol-1-yl)phenyl)amino)quinazolin-8-yl)phenyl)acrylamide]	100 to 500	< 50	< 50	–
C=CC(=O)Nc1cccc(-c2cccc3cnc(Nc4ccc(N5CCN(C(=O)CC)CC5)cc4)nc23)c1 [Example C084, N-(3-(2-((4-(4-propionylpiperazin-1-yl)phenyl)amino)quinazolin-8-yl)phenyl)acrylamide]	100 to 500	< 50	> 50	–
C=CC(=O)Nc1cccc(-c2cccc3cnc(Nc4ccc(N(C)CCF)cc4)nc23)c1 [Example C064, N-(3-(2-((4-((2-fluoroethyl)(methyl)amino)phenyl)amino)quinazolin-8-yl)phenyl)acrylamide]	> 500	< 50	< 50	–
C=CC(=O)Nc1cccc(-c2cccc3cnc(Nc4ccc(N5CCN(S(C)(=O)=O)CC5)cc4)nc23)c1 [Example C092, N-(3-(2-((4-(4-(methylsulfonyl)piperazin-1-yl)phenyl)amino)quinazolin-8-yl)phenyl)acrylamide]	100 to 500	< 50	< 50	–
C=CC(=O)Nc1cccc(-c2cccc3cnc(Nc4cnc(N5CCN(C)CC5)c(C#N)c4)nc23)c1 [Example C086, N-(3-(2-((5-cyano-6-(4-methylpiperazin-1-yl)pyridin-3-yl)amino)quinazolin-8-yl)phenyl)acrylamide]	100 to 500	< 50	> 50	–
C=CC(=O)Nc1cccc(-c2cccc3cnc(Nc4ccc(N(C)CCF)cc4)nc23)c1F [Example C065, N-(2-fluoro-3-(2-((4-((2-fluoroethyl)(methyl)amino)phenyl)amino)quinazolin-8-yl)phenyl)acrylamide]	100 to 500	< 50	< 50	–
CN(C)C/C=C/C(=O)Nc1cccc(-c2cccc3cnc(Nc4ccc(N5CCN(C)CC5)cc4)nc23)c1 [Example C052, (E)-4-(dimethylamino)-N-(3-(2-((4-(4-methylpiperazin-1-yl)phenyl)amino)quinazolin-8-yl)phenyl)but-2-enamide]	100 to 500	< 50	> 50	–
C=CC(=O)Nc1cccc(-c2cccc3cnc(Nc4cnc(N5CCN(C)CC5)c(Cl)c4)nc23)c1 [Example C081, N-(3-(2-((5-chloro-6-(4-methylpiperazin-1-yl)pyridin-3-yl)amino)quinazolin-8-yl)phenyl)acrylamide]	100 to 500	< 50	> 50	< 100

Further lines, results first:

IC50 (H1975 cells) [nM]	inhibition at 0.041 µM (EGFR (ErbB1)) [%]	inhibition at 0.0137 µM (EGFR (ErbB1) T790M L858R) [%]	IC50 (EGFR (ErbB1) T790M L858R; read-out: IC50 against EGFR L858R/T790M) [nM]	Structure (SMILES)
< 100	< 50	< 50	–	C=CC(=O)Nc1cccc(-c2cccc3cnc(Nc4ccc(N5CCCOCC5)cc4)nc23)c1 [Example C102, N-(3-(2-((4-(1,4-oxazepan-4-yl)phenyl)amino)quinazolin-8-yl)phenyl)acrylamide]
< 100	< 50	< 50	–	C=CC(=O)Nc1cccc(-c2cccc3cnc(Nc4c(F)cc(N5CCN(C)CC5)cc4F)nc23)c1 [Example C148, N-(3-(2-((2,6-difluoro-4-(4-methylpiperazin-1-yl)phenyl)amino)quinazolin-8-yl)phenyl)acrylamide]
< 100	< 50	< 50	–	C=CC(=O)Nc1cccc(-c2cccc3cnc(Nc4ccc(NCC(F)F)cc4)nc23)c1 [Example C135, N-(3-(2-((4-((2,2-difluoroethyl)amino)phenyl)amino)quinazolin-8-yl)phenyl)acrylamide]
< 100	< 50	< 50	–	C=CC(=O)Nc1cccc(-c2cccc3cnc(Nc4ccc(N5CCCC5=O)cc4)nc23)c1 [Example C096, N-(3-(2-((4-(2-oxopyrrolidin-1-yl)phenyl)amino)quinazolin-8-yl)phenyl)acrylamide]
< 100	< 50	> 50	–	C=CC(=O)Nc1cccc(-c2cccc3cnc(Nc4ccc(N5CCN(CCOC)CC5)c(F)c4)nc23)c1 [Example C155, N-(3-(2-((3-fluoro-4-(4-(2-methoxyethyl)piperazin-1-yl)phenyl)amino)quinazolin-8-yl)phenyl)acrylamide]
100 to 500	< 50	< 50	–	C=CC(=O)Nc1cccc(-c2cccc3cnc(Nc4ccc(N5CCNC5=O)cc4)nc23)c1 [Example C097, N-(3-(2-((4-(2-oxoimidazolidin-1-yl)phenyl)amino)quinazolin-8-yl)phenyl)acrylamide]
< 100	< 50	< 50	–	C=CC(=O)Nc1cccc(-c2cccc3cnc(Nc4ccc(NCCF)cc4)nc23)c1 [Example C134, N-(3-(2-((4-((2-fluoroethyl)amino)phenyl)amino)quinazolin-8-yl)phenyl)acrylamide]
< 100	< 50	< 50	–	C=CC(=O)Nc1cccc(-c2cccc3cnc(Nc4ccc(N5CCN(CC(N)=O)CC5)cc4)nc23)c1 [Example C150, N-(3-(2-((4-(4-(2-amino-2-oxoethyl)piperazin-1-yl)phenyl)amino)quinazolin-8-yl)phenyl)acrylamide]
< 100	< 50	> 50	–	C=CC(=O)Nc1cccc(-c2cccc3cnc(Nc4ccc(N5CCN(C)CC5)cc4)nc23)c1C(=O)OC [Example C101, methyl 2-acrylamido-6-(2-((4-(4-methylpiperazin-1-yl)phenyl)amino)quinazolin-8-yl)benzoate]
> 500	< 50	< 50	–	C=CC(=O)Nc1cccc(-c2cccc3cnc(Nc4ccc(N5CCN(C)CC5)cc4C(=O)OC)nc23)c1 [Example C104, methyl 2-((8-(3-acrylamidophenyl)quinazolin-2-yl)amino)-5-(4-methylpiperazin-1-yl)benzoate]
< 100	< 50	< 50	–	C=CC(=O)Nc1cccc(-c2cccc3cnc(Nc4ccc(N5CCN(CCOC)CC5)cc4F)nc23)c1 [Example C153, N-(3-(2-((2-fluoro-4-(4-(2-methoxyethyl)piperazin-1-yl)phenyl)amino)quinazolin-8-yl)phenyl)acrylamide]
< 100	< 50	< 50	–	C=CC(=O)Nc1cccc(-c2cccc3cnc(Nc4ccc(N[C@@H]5CCN(C(C)=O)C5)cc4)nc23)c1 [Example C130, (R)-N-(3-(2-((4-((1-acetylpyrrolidin-3-yl)amino)phenyl)amino)quinazolin-8-yl)phenyl)acrylamide]
